# Results from EP2992880A1, “Use of heme oxygenase 1 inducers and cannabinoid 2 receptor or delta-opioid receptor agonists in inflammatory pain” (Fundació Institut de Recerca de l'Hospital de la Santa Creu …, priority 2014, dated 2016).
# What was measured:
# Type in all cases: in vivo, male C57BL/6 mice
# CFA-injected mice [1] = test: von Frey filaments test (mechanical allodynia) in CFA-induced chronic inflammatory pain; conditions: for Mechanical allodynia von Frey filaments strength / Mechanical allodynia, Experimental results (%) (maximal possible effect): ipsilateral paw; for Mechanical allodynia von Frey filaments strength: mean ± SEM, n=6; for reversal of the antiallodynic effects produced by 150 µg of DPDPE / reversal of the antiallodynic (antinociceptive) effects produced by 300 µg of JWH-015: subplantar coadministration; for reversal of the antiallodynic effects produced by 150 µg of DPDPE: P < 0.001; for Mechanical allodynia, Experimental results (%) (maximal possible effect): CoPP 10 mg/kg intraperitoneal
# Experimental: (§1) The experiments were performed in male C57BL/6 mice acquired from Harlan Laboratories (Barcelona, Spain). All mice weighing 21 to 25 g were housed under 12-h/12-h light/ dark conditions in a room with controlled temperature (22° C) and humidity (66%). Animals had free access to food and water and were used after a minimum of 7 days acclimatization to the housing conditions. All experiments were performed according with the Guide for the Care and Use of Laboratory Animals as adopted and promulgated by the U.S. National Institutes of Health and approved by the local Committee of Animal Use and Care of the Autonomous University of Barcelona. All efforts were made to minimize animal suffering and to reduce the number of animals used.
# (§2) Chronic inflammatory pain was induced by the subplantar injection of 30 µl of CFA (Sigma) into the right hind paw under brief anesthetic conditions with isoflurane according to previous works (Leánez et al., Eur J Pharmacol, 2009, 602:41-49; Hervera et al., Naunyn Schmiedebergs Arch Pharmacol, 2009, 380:345-352). All experiments were performed at 10 days after CFA injection. At this time point, all of these animals developed a local inflammatory reaction, allodynia to mechanical stimuli and hyperalgesia to noxious thermal stimuli, as previously reported (Negrete et al., PLoS One, 2011, 6:e26688). The development of mechanical allodynia and thermal hyperalgesia was evaluated by using the von Frey filaments and plantar tests, respectively. All animals were tested in each paradigm before and at 10 days after CFA-injection.
# Mechanical allodynia was quantified by measuring the hind paw withdrawal response to von Frey filament stimulation. In brief, animals were placed in methacrylate cylinders (20 cm high, 9 cm diameter; Servei Estació, Barcelona, Spain) with a wire grid bottom through which the von Frey filaments (North Coast Medical, Inc., San Jose, CA) with a bending force in the range of 0.008-3.5 g were applied by using a modified version of the up-down paradigm, as previously reported by Chaplan et al. (J Neurosci Methods, 1994, 53:55-63). The filament of 0.4 g was used first and the 3.0 g filament was used as a cut-off. Then, the strength of the next filament was decreased or increased according to the response. The threshold of response was calculated from the sequence of filament strength used during the up-down procedure by using an Excel program (Microsoft Iberia SRL, Barcelona, Spain) that includes curve fitting of the data. Clear paw withdrawal, shaking, or licking of the paw was considered as a nociceptive-like response. Both ipsilateral and contralateral hind paws were tested. Animals were allowed to habituate for 1 h before testing in order to allow an appropriate behavioral immobility.
# In a first set of experiments, we assessed the expression of inflammatory pain induced by the subplantar administration of CFA as previously used (Leánez et al., Eur J Pharmacol, 2009, 602:41-49). After the habituation period, baseline responses were established in the following sequence: von Frey filaments and plantar test. After baseline measurements, inflammatory pain was induced and animals were again tested in each paradigm at day 10 after CFA injection by using the same sequence as for baseline responses. The contralateral paws were used as controls (n = 6 animals per group).
# In a second set of experiments, we evaluated the mechanical antiallodynic and thermal antihyperalgesic effects of the subplantar administration of different doses of a specific DOR (DPDPE) or CB2R (JWH-015) agonist and their respective vehicles in the contralateral and ipsilateral paw of CFA-injected animals (n = 6 animals per group). […]
# CFA-injected mice [2] = test: plantar test (thermal hyperalgesia) in CFA-induced chronic inflammatory pain; conditions: for Thermal hyperalgesia Withdrawal latency: mean ± SEM, n=6; for reversal of the antihyperalgesic effects produced by 150 µg of DPDPE / reversal of the antihyperalgesic (antinociceptive) effects produced by 300 µg of JWH-015: subplantar coadministration; for reversal of the antihyperalgesic effects produced by 150 µg of DPDPE: P < 0.001
# Experimental: as §1, §2
# Thermal hyperalgesia was assessed as previously reported by Hargreaves et al. (Pain, 1988, 32:77-88). Paw withdrawal latency in response to radiant heat was measured using the plantar test apparatus (Ugo Basile, Varese, Italy). Briefly, mice were placed in methacrylate cylinders (20 cm high x 9 cm diameter) positioned on a glass surface. The heat source was positioned under the plantar surface of the hind paw and activated with a light beam intensity, chosen in preliminary studies to give baseline latencies from 8 to 10 s in control mice. A cut-off time of 12 s was used to prevent tissue damage in absence of response. The mean paw withdrawal latencies from the ipsilateral and contralateral hind paws were determined from the average of three separate trials, taken at 5 min intervals to prevent thermal sensitization and behavioral disturbances. Animals were habituated to the environment for 1 h before the experiment to become quiet and to allow testing. […]
# In another set of experiments, we evaluated the mechanical antiallodynic and thermal antihyperalgesic effects produced by the subplantar administration of 290 µg of SnPP alone or combined with the subplantar administration of a high dose of DPDPE (150 µg) or JWH-015 (300 µg) in the contralateral and ipsilateral paw of CFA-injected animals (n = 6 animals per group).
# The reversibility of the antinociceptive effects produced by the subplantar administration of DPDPE (150 µg) or JWH-015 (300 µg), as doses that produce the maximal antiallodynic and antihyperalgesic effects after peripheral inflammation, by their subplantar coadministration with specific (naltrindole; 50 µg; AM630; 60 µg) and an unspecific peripheral opioid antagonist (naloxone methiodide, NX-ME; 50 µg) or a cannabinoid 1 receptor (CB1R) antagonist (AM251; 150 µg) (Hervera et al., J Pharmacol Exp Ther, 2010, 334: 887-896; Hervera et al., Mol Pain, 2011, 7:25) was also evaluated (n = 6 animals per group). The doses of all tested opioid and cannabinoid receptor antagonists were selected according to our previous data in animals with chronic pain (Hervera et al., Naunyn Schmiedebergs Arch Pharmacol, 2009, 380:345-352; Hervera et al., Psychopharmacology, 2013, 228:463-477; Negrete et al., PLoS One, 2011, 6:e26688).
# CoPP and SnPP were dissolved in DMSO (1 % solution in saline). JWH-015, AM630, AM251 were dissolved in DMSO (50 % solution in saline). […]
# CFA-injected mice [3] = test: as above
# Experimental: as §1
# Chronic inflammatory pain was induced by the subplantar injection of 30 µl of CFA (Sigma) into the right hind paw under brief anesthetic conditions with isoflurane according to previous works (Leánez et al., Eur J Pharmacol, 2009, 602:41-49; Hervera et al., Naunyn Schmiedebergs Arch Pharmacol, 2009, 380:345-352). All experiments were performed at 10 days after CFA injection. […] The development of mechanical allodynia and thermal hyperalgesia was evaluated by using the von Frey filaments and plantar tests, respectively. […]
# Thermal hyperalgesia was assessed as previously reported by Hargreaves et al. (Pain, 1988, 32:77-88). Paw withdrawal latency in response to radiant heat was measured using the plantar test apparatus (Ugo Basile, Varese, Italy). […] The mean paw withdrawal latencies from the ipsilateral and contralateral hind paws were determined from the average of three separate trials, taken at 5 min intervals to prevent thermal sensitization and behavioral disturbances. […]
# In a first set of experiments, we assessed the expression of inflammatory pain induced by the subplantar administration of CFA as previously used (Leánez et al., Eur J Pharmacol, 2009, 602:41-49). […]
# [4] = Table 7, DOR agonist, subplantar DPDPE 150 µg, naltrindole 50 µg, NX-ME 50 µg, vehicle+vehicle 1.3 ± 0.1
# [5] = Table 7, DOR agonist, ipsilateral paw, subplantar DPDPE 150 µg, naltrindole 50 µg, NX-ME 50 µg, vehicle+vehicle 3.4 ± 0.5
# [6] = Table 7, CB2R agonist, subplantar JWH-015 300 µg, AM630 60 µg, AM251 150 µg, vehicle+vehicle 1.4 ± 0.1
# [7] = Table 7, CB2R agonist, ipsilateral paw, subplantar JWH-015 300 µg, AM630 60 µg, AM251 150 µg, vehicle+vehicle 3.8 ± 0.3
molecule,measurement,setting,value
"C=CC[N+]1(C)CC[C@]23c4c5ccc(O)c4O[C@H]2C(=O)CC[C@@]3(O)[C@H]1C5 (some centres unmarked) [NX-ME, naloxone methiodide]",Mechanical allodynia von Frey filaments strength,CFA-injected mice [1]; [4],1.2 ± 0.1 g
same,reversal of the antiallodynic effects produced by 150 µg of DPDPE,"CFA-injected mice [1]; naltrindole 50 µg, NX-ME 50 µg",completely reversed
same,Thermal hyperalgesia Withdrawal latency,CFA-injected mice [2]; [5],3.6 ± 0.5 s
same,reversal of the antihyperalgesic effects produced by 150 µg of DPDPE,"CFA-injected mice [2]; naltrindole 50 µg, NX-ME 50 µg",completely reversed
"Oc1ccc2c3c1O[C@H]1c4[nH]c5ccccc5c4C[C@@]4(O)[C@@H](C2)N(CC2CC2)CC[C@]314 [Naltrindole, naltrindole]",Mechanical allodynia von Frey filaments strength,CFA-injected mice [1]; [4],1.3 ± 0.1 g
same,reversal of the antiallodynic effects produced by 150 µg of DPDPE,"CFA-injected mice [1]; naltrindole 50 µg, NX-ME 50 µg",completely reversed
same,Thermal hyperalgesia Withdrawal latency,CFA-injected mice [2]; [5],3.4 ± 0.6 s
same,reversal of the antihyperalgesic effects produced by 150 µg of DPDPE,"CFA-injected mice [2]; naltrindole 50 µg, NX-ME 50 µg",completely reversed
"[2-D-penicillamine,5-D-penicillamine]-enkephalin [DPDPE]","Mechanical allodynia, Experimental results (%) (maximal possible effect)","CFA-injected mice [1]; Table 5, DPDPE 50 µg subplantar, vehicle 5.8",11.8%
same,Mechanical allodynia von Frey filaments strength,CFA-injected mice [1]; [4],2.4 ± 0.1 g
same,mechanical allodynia induced by peripheral inflammation,"CFA-injected mice [1]; subplantar administration, DPDPE 50-150 µg, JWH-015 30-300 µg (Fig. 1A, 2A)",dose-dependently inhibited
same,"Thermal hyperalgesia, Experimental results (%) (maximal possible effect)","CFA-injected mice [3]; Table 5, ipsilateral paw, CoPP 10 mg/kg intraperitoneal, DPDPE 50 µg subplantar, vehicle 4.0",16.0%
same,Thermal hyperalgesia Withdrawal latency,"CFA-injected mice [3]; Table 7, DOR agonist, ipsilateral paw, subplantar DPDPE 150 µg, naltrindole 50 µg, NX-ME 50 µg, vehicle+vehicle 3.4 ± 0.5, mean ± SEM, n=6",9.2 ± 0.7 s
same,thermal hyperalgesia induced by peripheral inflammation,"CFA-injected mice [3]; subplantar administration, DPDPE 50-150 µg, JWH-015 30-300 µg (Fig. 1B, 2B)",dose-dependently inhibited
"Cc1c(C(=O)NN2CCCCC2)nn(-c2ccc(Cl)cc2Cl)c1-c1ccc(I)cc1 [AM251, N-(piperidin-1-yl)-5-(4-iodophenyl)-1-(2,4-dichlorophenyl)-4-methyl-1 H-pyrazole-3-carboxamide]",Mechanical allodynia von Frey filaments strength,CFA-injected mice [1]; [6],1.4 ± 0.1 g
same,reversal of the antiallodynic (antinociceptive) effects produced by 300 µg of JWH-015,"CFA-injected mice [1]; AM630 60 µg, AM251 150 µg",unable to revert
same,Thermal hyperalgesia Withdrawal latency,CFA-injected mice [2]; [7],3.6 ± 0.4 s
same,reversal of the antihyperalgesic (antinociceptive) effects produced by 300 µg of JWH-015,"CFA-injected mice [2]; AM630 60 µg, AM251 150 µg",unable to revert
"CCCn1c(C)c(C(=O)c2cccc3ccccc23)c2ccccc21 [JWH-015, (2-Methyl-1-propyl-1H-indol-3-yl)-1-naphthalenylmethanone]","Mechanical allodynia, Experimental results (%) (maximal possible effect)","CFA-injected mice [1]; Table 6, JWH-015 30 µg subplantar, vehicle 4.1",7.5%
same,Mechanical allodynia von Frey filaments strength,CFA-injected mice [1]; [6],2.5 ± 0.2 g
same,"Thermal hyperalgesia, Experimental results (%) (maximal possible effect)","CFA-injected mice [2]; Table 6, ipsilateral paw, CoPP 10 mg/kg intraperitoneal, JWH-015 30 µg subplantar, vehicle 4.9",7.4%
same,Thermal hyperalgesia Withdrawal latency,CFA-injected mice [2]; [7],9.2 ± 0.2 s
COc1ccc(C(=O)c2c(C)n(CCN3CCOCC3)c3cc(I)ccc23)cc1 [AM630],Mechanical allodynia von Frey filaments strength,CFA-injected mice [1]; [6],1.3 ± 0.1 g
same,reversal of the antiallodynic (antinociceptive) effects produced by 300 µg of JWH-015,"CFA-injected mice [1]; AM630 60 µg, AM251 150 µg",completely reversed
same,Thermal hyperalgesia Withdrawal latency,CFA-injected mice [2]; [7],3.7 ± 0.2 s
same,reversal of the antihyperalgesic (antinociceptive) effects produced by 300 µg of JWH-015,"CFA-injected mice [2]; AM630 60 µg, AM251 150 µg",completely reversed
"C=Cc1c(C)c2cc3[nH]c(cc4nc(cc5nc(cc1[nH]2)C(C)=C5CCC(=O)[O-])C(CCC(=O)[O-])=C4C)c(C)c3C=C.[Cl-].[Cl-].[Sn+4] [SnPP, tin (IV) protoporphyrin IX dichloride]",effect of SnPP coadministration on the local antiallodynic effects of DPDPE,"CFA-injected mice [1]; SnPP 290 µg + DPDPE 150 µg subplantar, P < 0.001 (Fig. 5A)",significantly decreased
same,effect of SnPP coadministration on the local antiallodynic effects of JWH-015,"CFA-injected mice [1]; SnPP 290 µg + JWH-015 300 µg subplantar, P < 0.001 (Fig. 5A)",significantly decreased
same,mechanical allodynia induced by peripheral inflammation,CFA-injected mice [1]; SnPP alone 290 µg subplantar (Fig. 5A),did not alter
same,effect of SnPP coadministration on the local antihyperalgesic effects of DPDPE,"CFA-injected mice [2]; SnPP 290 µg + DPDPE 150 µg subplantar, P < 0.001 (Fig. 5B)",significantly decreased
same,effect of SnPP coadministration on the local antihyperalgesic effects of JWH-015,"CFA-injected mice [2]; SnPP 290 µg + JWH-015 300 µg subplantar, P < 0.001 (Fig. 5B)",significantly decreased
same,thermal hyperalgesia induced by peripheral inflammation,CFA-injected mice [2]; SnPP alone 290 µg subplantar (Fig. 5B),did not alter
